Drawing on patent US7629340B2, “N-(6-membered aromatic ring)-amido anti-viral compounds” (SmithKline Beecham Corporation, priority 2005, dated 2009), this text covers inhibition for 13 molecules.

The nature of the assay: Replicon Assay (luciferase, ET cell line). The assay is classed as cell-based, HCV. Particulars: Hepatitis C virus; % inhibition of replication relative to no compound control, test concentration of 10 μM; ET cells, luciferase read 48-72 hours; read-out: % inhib at 10 uM. As for the experimental part: A cell line, ET (Huh-lucubineo-ET) was used for screening of compounds of the present invention for HCV RNA dependent RNA polymerase. The ET cell line was stably transfected with RNA transcripts harboring a I389luc-ubi-neo/NS3-3′/ET; replicon with firefly luciferase-ubiquitin-neomycin phosphotransferase fusion protein and EMCV-IRES driven NS3-5B polyprotein containing the cell culture adaptive mutations (E1202G; T1280I; K1846T) (Krieger at al, 2001 and unpublished). The ET cells were grown in DMEM, supplemented with 10% fetal calf serum, 2 mM Glutamine, Penicillin (100 IU/mL)/Stretomycin (100 μg/mL), 1× nonessential amino acids, and 250 μg/mL G418 (“Geneticin”). They were all available through Life Technologies (Bethesda, Md.). The cells were plated at 0.5−1.0×10^4 cells/well in the 96 well plates and incubated for 24 hrs before adding nucleoside analogs. […] Luciferase activity were measured 48-72 hours later by adding a lysis buffer and the substrate (Catalog number Glo-lysis buffer E2661 and Bright-Glo luciferase system E2620 Promega, Madison, Wis.). Cells should not be too confluent during the assay. Percent inhibition of replication was plotted relative to no compound control. Under the same condition, cytotoxicity of the compounds was determined using cell proliferation reagent, WST-1 (Roche, Germany). The compounds showing antiviral activities, but no significant cytotoxicities were chosen to determine IC50 and TC50. For these determinations, 10 concentration of each compound were used. Concentrations for test compounds typically span a range of 500 fold. IC50 and TC50 values were calculated by fitting % inhibition at each concentration (I) to the following equation: % inhibition=100%/[1+10^(log IC50−log(I))*b] where b is Hill's coefficient.
A general note: In antiviral work, replicon cells carry a viral genome segment that copies itself.

As to `CC1=NN(c2ccccc2)C(=O)/C1=C\c1ccc(NC(=O)[C@@H]2CCCN2C(=O)OCc2ccccc2)cc1` (stereo in doubt) [Compound 6005, 2-[4-(3-Methyl-5-oxo-1-phenyl-1,5-dihydro-pyrazol-4-ylidenemethyl)-phenylcarbamoyl]-pyrrolidine-1-carboxylic acid benzyl ester], the inhibition at 10 µM is 3.63%.
Regarding `CC(=O)c1ccc(-c2cccc(NC(=O)[C@@H]3CCCN3C(=O)OCc3ccccc3)c2)s1` [Compound 6048, 2-[3-(5-Acetyl-thiophen-2-yl)-phenylcarbamoyl]-pyrrolidine-1-carboxylic acid benzyl ester], the inhibition at 10 µM is 36.9%.
On to `CN(C)c1cccc(-c2cccc(NC(=O)[C@@H]3CCCN3C(=O)OCc3ccccc3)c2)c1` [Compound 6096, 2-(3′-Dimethylamino-biphenyl-3-ylcarbamoyl)-pyrrolidine-1-carboxylic acid benzyl ester], for which the inhibition at 10 µM worked out at 53.3%.
For the molecule `Cc1cc2nc(Cc3ccc(NC(=O)[C@@H]4CCCN4C(=O)OCc4ccccc4)cc3)[nH]c2cc1C` [Compound 6014, 2-[4-(5,6-Dimethyl-1H-benzoimidazol-2-ylmethyl)-phenylcarbamoyl]-pyrrolidine-1-carboxylic acid benzyl ester], the inhibition at 10 µM worked out at 99.6%.
Consider `O=C(NCc1cccc(-c2cccc(NC(=O)[C@@H]3CCCN3C(=O)OCc3ccccc3)c2)c1)C1CC1` [Compound 6311, 2-{3′-[(Cyclopropanecarbonyl-amino)-methyl]-biphenyl-3-ylcarbamoyl}-pyrrolidine-1-carboxylic acid benzyl ester], for which the inhibition at 10 µM is 94.2%.
As for `O=C1Nc2ccc(-c3cccc(NC(=O)[C@@H]4CCCN4C(=O)OCc4ccccc4)c3)cc2C1=O` [Compound 6084, 2-[3-(2,3-Dioxo-2,3-dihydro-1H-indol-5-yl)-phenylcarbamoyl]-pyrrolidine-1-carboxylic acid benzyl ester], the inhibition at 10 µM is 3.35%.
For `COc1ccc(OC)c(-c2ccc(NC(=O)[C@@H]3CCCN3C(=O)OCc3ccccc3)cc2)c1` [Compound 6007, 2-(2′,5′-Dimethoxy-biphenyl-4-ylcarbamoyl)-pyrrolidine-1-carboxylic acid benzyl ester], the inhibition at 10 µM was found to be 93.4%.
As for `Cc1ccc2cc(-c3cccc(NC(=O)[C@@H]4CCCN4C(=O)OCc4ccccc4)c3)ccc2n1` [Compound 6085, 2-[3-(2-Methyl-quinolin-6-yl)-phenylcarbamoyl]-pyrrolidine-1-carboxylic acid benzyl ester], the inhibition at 10 µM was determined as 39.7%.
As to `O=C(Nc1cccc(Oc2c(F)c(F)c(F)c(F)c2F)c1)[C@@H]1CCCN1C(=O)OCc1ccccc1` [Compound 6012, 2-(3-Pentafluorophenyloxy-phenylcarbamoyl)-pyrrolidine-1-carboxylic acid benzyl ester], the inhibition at 10 µM amounted to 44.5%.
`COc1cccc(-c2cccc(NC(=O)[C@@H]3CCCN3C(=O)OCc3ccccc3)c2)c1OC` [Compound 6026, 2-(2′,3′-Dimethoxybiphenyl-3-yl-carbamoyl)-pyrrolidine-1-carboxylic acid benzyl ester]: the inhibition at 10 µM was found to be 98.7%.
For the molecule `O=C(Cc1cccc(-c2cccc(NC(=O)[C@@H]3CCCN3C(=O)OCc3ccccc3)c2)c1)NC1CC1` [Compound 6312, 2-(3′-Cyclopropylcarbamoylmethyl-biphenyl-3-ylcarbamoyl)-pyrrolidine-1-carboxylic acid benzyl ester], the inhibition at 10 µM worked out at 68.6%.
With `O=C(Nc1ccc(-c2cccs2)cc1)[C@@H]1CCCN1C(=O)OCc1ccccc1` [Compound 6023, 2-(4-Thiophen-2-yl-phenylcarbamoyl)-pyrrolidine-1-carboxylic acid benzyl ester], the inhibition at 10 µM stood at 75.4%.
For the molecule `O=C(Nc1cccc(-c2ccc3[nH]ccc3c2)c1)[C@@H]1CCCN1C(=O)OCc1ccccc1` [Compound 6010, 2-[3-(1H-Indol-5-yl)-phenylcarbamoyl]-pyrrolidine-1-carboxylic acid benzyl ester], the inhibition at 10 µM was 98.6%.
